Results reported in patent US20240215573A1, “LIQUID AGROCHEMICAL COMPOSITION” (NOURYON CHEMICALS INTERNATIONAL B.V., priority 2020, published 2024).

Experiments:
Assay type in all cases: in vivo
[1] = tested on: Alfalfa; experiment: Greenhouse Test 1: weed control by 2,4-D with surfactants
From the text: In a first series of Examples, the following compounds are utilized to evaluate the efficacy of various herbicides in combination with various surfactants against two types of weeds: • Herbicides: […]; dicamba; and glufosinate • Surfactants: Glycerol Monosoyate+10EO; • Glycerol Monosoyate+15EO; • Glycerol Monosoyate+20EO; • Glycerol Monosoyate+30EO; • Glycerol Monosoyate+50EO; • Soybean oil+20EO; • Reference 1—Polyoxyethylene (20) sorbitan monolaurate • Reference 2—Sodium lauryl ether sulfate The following test protocol is used:
(§1) Data is collected at end of each week for 4 weeks.

[2] = tested on: Alfalfa; experiment: Greenhouse Test 1: weed control by dicamba with surfactants
From the text: (§2) In a first series of Examples, the following compounds are utilized to evaluate the efficacy of various herbicides in combination with various surfactants against two types of weeds: • Herbicides: 2,4-D ester; dicamba; and glufosinate • Surfactants: Glycerol Monosoyate+10EO; • Glycerol Monosoyate+15EO; • Glycerol Monosoyate+20EO; • Glycerol Monosoyate+30EO; • Glycerol Monosoyate+50EO; • Soybean oil+20EO; • Reference 1—Polyoxyethylene (20) sorbitan monolaurate • Reference 2—Sodium lauryl ether sulfate The following test protocol is used:
as §1

[3] = tested on: Morning glory; experiment: Greenhouse Test 1: weed control by glufosinate with surfactants
From the text: as §2, §1

[4] = tested on: Anthracnose (Colletotrichum gloeosporioides); experiment: Greenhouse Test 2: Thiophenate methyl 70% WP with surfactants against anthracnose of grapes; settings: Table C, summary in words
From the text: (§3) In a second series of Examples, the following compounds are utilized to evaluate the efficacy of various fungicides in combination with various surfactants against fungi: • Fungicides: Hexaconazole 5% EC; Dimethomorph 50WP; Thiophenate methyl 70% WP; Azoxystrobin 23 SC • Surfactants: • Dioctyl sulfosuccinate • Alkoxylated glyceride with 20EO; • Alkoxylated glyceride with 50EO; • Siloxane Polyalkyleneoxide Copolymer • Fungi: • Powdery mildew (Erysiphenecator); • Downy mildew (Plasmopara viticola); • Anthracnose (Colletotrichum gloeosporioides); and • Early blight (Alternariasolani). The following test protocol is used:
(§4) There are 4 different fungicide formulations tested against 4 different pests (fungi). For each test there are untreated control (#1) and fungicide only w/o surfactant (#2). The same general protocol described above was used.
Percent Disease Index (PDI) for powdery mildew, downy mildew, anthracnose and early blight diseases were calculated by following formulae: […]
In case of grapes ratings on minimum ten leaves and a bunch were recorded on randomly selected canes. Ten such canes per plant were observed. The observations on 8 plants spread over four replication were recorded. Thus, the data presented on PDI is average of randomly selected 80 canes.

[5] = tested on: fungi; experiment: Greenhouse Test 2: overall comparison over the 4 fungicide formulations and 4 fungi; settings: all 4 fungicide formulations; summary in words
From the text: as §3, §4

[6] = Table 1A: 2,4-D DMA 91 g ae/A, surfactant 0.1%
[7] = Table 1B: 2,4-D DMA 91 g ae/A, surfactant 0.25%
[8] = Table 1C: 2,4-D DMA 91 g ae/A, surfactant 0.25% (so in the source)
[9] = Table 1D: 2,4-D DMA 91 g ae/A (so in the source), surfactant 0.25%
[10] = Table 2A: Dicamba 23 g ae/A, surfactant 0.1%
[11] = Table 2B: Dicamba 23 g ae/A, surfactant 0.25%
[12] = Table 2C: Dicamba 45 g ae/A, surfactant 0.1%
[13] = Table 2D: Dicamba 45 g ae/A, surfactant 0.25%
[14] = Table 3A: Glufosinate 3 oz/a, surfactant 0.25%
[15] = Table 3B: Glufosinate 3 oz/a, surfactant 0.5%
[16] = Table 3C: Glufosinate 6 oz/a, surfactant 0.25%
[17] = Table 3D: Glufosinate 6 oz/a, surfactant 0.50%

## CNC.O=C(O)COc1ccc(Cl)cc1Cl [2,4-D DMA]
[1]; [6]
  % weed control, 7 day: 0.0%
  % weed control, 14 day: 0.0%
  % weed control, 21 day: 27.5%
  % weed control, 28 day: 32.5%
[1]; [7]
  % weed control, 7 day: 0.0%
  % weed control, 14 day: 0.0%
  % weed control, 21 day: 27.5%
  % weed control, 28 day: 32.5%
[1]; [8]
  % weed control, 7 day: 0.0%
  % weed control, 14 day: 7.5%
  % weed control, 21 day: 57.5%
  % weed control, 28 day: 57.5%
[1]; [9]
  % weed control, 7 day: 0.0%
  % weed control, 14 day: 7.5%
  % weed control, 21 day: 57.5%
  % weed control, 28 day: 57.5%

## COc1c(Cl)ccc(Cl)c1C(=O)O [Dicamba]
[2]; [10]
  % weed control, 7 day: 0.0%
  % weed control, 14 day: 20.0%
  % weed control, 21 day: 20.0%
  % weed control, 28 day: 12.5%
[2]; [11]
  % weed control, 7 day: 0.0%
  % weed control, 14 day: 20.0%
  % weed control, 21 day: 20.0%
  % weed control, 28 day: 12.5%
[2]; [12]
  % weed control, 7 day: 0.0%
  % weed control, 14 day: 50.0%
  % weed control, 21 day: 75.0%
  % weed control, 28 day: 55.0%
[2]; [13]
  % weed control, 7 day: 0.0%
  % weed control, 14 day: 50.0%
  % weed control, 21 day: 75.0%
  % weed control, 28 day: 55.0%

## CP(=O)(O)CCC(N)C(=O)O (centres unmarked) [Glufosinate]
[3]; [14]
  % weed control, 7 day: 0.0%
  % weed control, 14 day: 40.0%
  % weed control, 21 day: 25.0%
  % weed control, 28 day: 12.5%
[3]; [15]
  % weed control, 7 day: 0.0%
  % weed control, 14 day: 40.0%
  % weed control, 21 day: 25.0%
  % weed control, 28 day: 12.5%
[3]; [16]
  % weed control, 7 day: 0.0%
  % weed control, 14 day: 55.0%
  % weed control, 21 day: 40.0%
  % weed control, 28 day: 27.5%
[3]; [17]
  % weed control, 7 day: 0.0%
  % weed control, 14 day: 55.0%
  % weed control, 21 day: 40.0%
  % weed control, 28 day: 27.5%

## CCCCCCCCOC(=O)CC(C(=O)OCCCCCCCC)S(=O)(=O)O (centres unmarked) [dioctyl sulfosuccinate, Dioctyl sulfosuccinate]
[4]
  efficacy compared with alkoxylated glyceride with 20EO: lack of efficacy as compared to the alkoxylated glyceride with 20EO
[5]
  overall disease control with fungicides: overall good control in all cases

## Polyoxyethylene (20) sorbitan monolaurate
[3]; [14]
  % weed control, 7 day: 85.0%
  % weed control, 14 day: 80.0%
  % weed control, 21 day: 58.8%
  % weed control, 28 day: 56.3%
[3]; [15]
  % weed control, 7 day: 91.3%
  % weed control, 14 day: 92.0%
  % weed control, 21 day: 85.0%
  % weed control, 28 day: 82.5%
[3]; [16]
  % weed control, 7 day: 91.3%
  % weed control, 14 day: 91.3%
  % weed control, 21 day: 82.5%
  % weed control, 28 day: 81.3%
[3]; [17]
  % weed control, 7 day: 91.3%
  % weed control, 14 day: 93.8%
  % weed control, 21 day: 94.5%
  % weed control, 28 day: 95.8%
[2]; [10]
  % weed control, 7 day: 62.5%
  % weed control, 14 day: 73.8%
  % weed control, 21 day: 50.0%
  % weed control, 28 day: 62.5%
[2]; [11]
  % weed control, 7 day: 60.0%
  % weed control, 14 day: 70.0%
  % weed control, 21 day: 50.0%
  % weed control, 28 day: 50.0%
[2]; [12]
  % weed control, 7 day: 77.5%
  % weed control, 14 day: 87.5%
  % weed control, 21 day: 76.3%
  % weed control, 28 day: 81.3%
[2]; [13]
  % weed control, 7 day: 70.0%
  % weed control, 14 day: 83.8%
  % weed control, 21 day: 75.0%
  % weed control, 28 day: 78.8%
[1]; [6]
  % weed control, 7 day: 67.5%
  % weed control, 14 day: 83.8%
  % weed control, 21 day: 70.0%
  % weed control, 28 day: 72.5%
[1]; [7]
  % weed control, 7 day: 67.5%
  % weed control, 14 day: 81.3%
  % weed control, 21 day: 67.5%
  % weed control, 28 day: 72.5%
[1]; [8]
  % weed control, 7 day: 72.5%
  % weed control, 14 day: 86.3%
  % weed control, 21 day: 80.0%
  % weed control, 28 day: 85.0%
[1]; [9]
  % weed control, 7 day: 72.5%
  % weed control, 14 day: 82.5%
  % weed control, 21 day: 76.3%
  % weed control, 28 day: 81.3%

## Sodium lauryl ether sulfate
[3]; [14]
  % weed control, 7 day: 85.0%
  % weed control, 14 day: 75.0%
  % weed control, 21 day: 55.0%
  % weed control, 28 day: 55.0%
[3]; [15]
  % weed control, 7 day: 87.5%
  % weed control, 14 day: 90.0%
  % weed control, 21 day: 87.5%
  % weed control, 28 day: 77.5%
[3]; [16]
  % weed control, 7 day: 92.5%
  % weed control, 14 day: 95.8%
  % weed control, 21 day: 95.8%
  % weed control, 28 day: 96.5%
[3]; [17]
  % weed control, 7 day: 90.0%
  % weed control, 14 day: 88.8%
  % weed control, 21 day: 91.3%
  % weed control, 28 day: 89.5%
[2]; [10]
  % weed control, 7 day: 72.5%
  % weed control, 14 day: 81.3%
  % weed control, 21 day: 71.3%
  % weed control, 28 day: 70.0%
[2]; [11]
  % weed control, 7 day: 65.0%
  % weed control, 14 day: 80.0%
  % weed control, 21 day: 67.5%
  % weed control, 28 day: 70.0%
[2]; [12]
  % weed control, 7 day: 72.5%
  % weed control, 14 day: 82.5%
  % weed control, 21 day: 76.3%
  % weed control, 28 day: 76.3%
[2]; [13]
  % weed control, 7 day: 67.5%
  % weed control, 14 day: 82.5%
  % weed control, 21 day: 75.0%
  % weed control, 28 day: 75.0%
[1]; [6]
  % weed control, 7 day: 67.5%
  % weed control, 14 day: 83.8%
  % weed control, 21 day: 73.8%
  % weed control, 28 day: 75.0%
[1]; [7]
  % weed control, 7 day: 67.5%
  % weed control, 14 day: 82.5%
  % weed control, 21 day: 72.5%
  % weed control, 28 day: 67.5%
[1]; [8]
  % weed control, 7 day: 72.5%
  % weed control, 14 day: 86.3%
  % weed control, 21 day: 86.3%
  % weed control, 28 day: 87.5%
[1]; [9]
  % weed control, 7 day: 75.0%
  % weed control, 14 day: 85.0%
  % weed control, 21 day: 82.5%
  % weed control, 28 day: 83.8%
